# Data as given in patent US20140336187A1, “METHODS FOR TREATING LEISHMANIASIS” (HOWARD UNIVERSITY, priority 2011, published 2014).
# Where “and” joins values, the source holds several entries; their conditions need not be identical. Equal entries are not always repeated. Where two headings read alike, the source gives them in different places.
# Tests used:
# L. donovani = experiment: In vivo visceral leishmaniasis BALB/c mouse model: liver and spleen parasite burden (LDUs); design: species or system BALB/c mice; conditions: for LDUs (Liver): subcutaneous, 4 days from day 7; for LDUs (Liver) / LDUs (Spleen): 14 days post infection, n=2; for Parasite Suppression (%)--Liver (reduction in parasite burden) / Parasite Suppression (%)--Spleen (reduction in parasite burden) / increase in parasite burden (spleen): compared to untreated controls
# Description: Balb/c mice 10-11 weeks old were infected with L. donovani inoculated subcutaneously (SC) at the base of the tail (maximum 0.2 ml) with 1×10^6 freshly harvested promastigotes. These represented a VL model which has been described previously (Yardley and Croft, 1999). After infection, mice were marked for individual identification and randomly allocated into groups of two. Seven days after infection, a mouse was sacrificed, and parasitic burden assessed based on microscopic enumeration of amastigotes (Leishman donovan bodies) against host cell nuclei on liver and spleen impression smears (Stauber et al., 1958). Blood was collected through cardiac puncture for use in all serum based assays.
# Dosing began on the seventh day post-infection for 4 continuous days. […] Dosing was administered subcutaneously at the base of the tail.
# It includes the different groups of mice and the concentrations of compounds used for the treatment of infections. A Representation of infections and treatments of BALB/c Mice is in Table 2. All mice were infected with 10^6 log phase promastigotes in PBS. In each group with different concentrations, there were two mice (n=2). […] The positive controls that were infected but were not treated with any drug except PBS, and the negative controls that were not infected with the parasites, but injected with only PBS.
# The efficacy of compounds was assessed by microscopically determining the reduction in amastigotes burden Leishman donovan bodies (LDBs) within the liver and spleen. Impression smears were taken 14 days post infection (7 days after the start of treatment). Mice liver and spleen imprints were made by touching a freshly cut surface of the mice liver and spleen many times with a Poly-L-Lysine coated slide. The slides were air dried, fixed in “Diff Quick” fixative for 30 seconds, drained, stained with “Quick Diff” solution II for 30 seconds, drained, and then finally counterstaining with “Diff Quick” solution I for 30 seconds and then drained. Slides were rinsed in tap water to remove excess stain and rapidly dehydrated in absolute alcohol. Slides were examined by light microscopy, using ×1000 oil immersion. LDBs were determined by dividing the number of LDBs/number of cells nuclei x weight of organ in milligrams. This gave the number of “Leishman donovan units” (LDUs).
# The purpose of the test was to evaluate splenic and liver parasite burden after treatment with selected compounds. This was done by making imprints and calculating the number of Leishman Donovan Units (LDUs) in cells. LDUs are calculated by counting the number of parasites per cell nuclei (number of amastigotes in cells÷number of cells) multiplied by the weight of the organ in milligrams. […] Effectiveness of compounds in the treatment of VL is expressed as LDU numbers and as percent increases or percent decrease in LDUs. Percent increase in LDU means that the number of parasites increased compared to the untreated controls and percent decrease means that the number of parasites decreased compared to the untreated controls.
# serum IgG = experiment: Seroprevalence of L. donovani-specific serum IgG (ELISA) in infected BALB/c mice; format: in vivo; conditions: serum 14 days post-infection
# Description: To make L. donovani crude antigens, L. donovani promastigotes and amastigotes were counted using a hemocytometer, spun at 800×g for 10 min, and washed three times with 1× phosphate buffered saline (PBS). After the final wash, parasites were resuspended in 1×PBS at a concentration of 1×10^8 promastigotes (amastigotes)/ml and lysed by 5 freeze and thaw cycles or by sonication at maximum speed for 5 cycles of 10 seconds with cooling, and frozen at −80° C. until needed for assay (Burns et al., 1993; Zijlstra et al., 1998). Protein concentration was determined by the BIORAD assay.
# 5 μg/ml of antigen in 100 mM carbonate-bicarbonate buffer […], were added to the wells of a 96 well polyvinyl plate (100 μl/well) and incubated at room temperature for 1 hr or overnight at 4° C. Wells were emptied, blocking buffer was added (200 μl/well), and wells were incubated at room temperature for 1 hr. Wells were emptied and 50 or 100 μl/well of diluted samples added (5× mice serum), and incubated for 1.5-2 hrs. Plates were washed 4× and an anti-mouse-IgG was diluted 1:500, and added (100 μl/well); these plates were incubated for 30 min in the dark and secondary antibody tagged to HRP was added at a dilution of 1:500. TMB-HRP developer was added 100 μl/well for 30 min in the dark and plates were read at 630 nm on a spectrophotometer (Zijlstra et al., 1998).
# The purpose of the test was to confirm positive infectivity through levels of serum IgG in infected BALB/c mice. A high serum IgG level is predictive of an infection with visceral leishmaniasis. The results are expressed as percent increase or percent decrease in IgG levels. Four compounds with three different concentrations each were used for the tests.
# Serum levels of IgG in infected but untreated mice increased by 20.36% compared to that of uninfected mice. […] Specific-parasite IgG antibodies produced by BALB/c mice inoculated with 10^6 infective concentrations of Leishmania donovani. Mice (n=2 per group) were infected subcutaneously at the base of their tail with log phase promastigotes. […] Serum from mice was obtained fourteen days post-infection and tested individually by ELISA to determine the specific levels of L. donovani IgG. Bars indicate the mean±S.E. (Standard Error) from two mice.
# L. donovani amastigotes = experiment: Antileishmanial activity on L. donovani amastigotes (resazurin assay); format: cell-based, Leishmania donovani; conditions: for IC50: read-out: IC50 (μM) Amastigotes; for SI Values Amastigotes: SI = IC50 (mouse fibroblast) ÷ IC50 (amastigotes)
# Description: Amastigotes were grown in MAA/20 medium (Amastigote medium consisted of: M199 medium supplemented with 0.5% Tryptone broth, 0.01 mM bathocuproinedisulfonic acid, 0.108 mM L-Cysteine, 15 mM D-glucose, 0.685 mM L-glutamine, and 0.025 mM Hemin and 20% fetal calf serum (FCS) at a pH of 5.5).
# Amastigotes were plated at a concentration of 2×10^5 cells/[…] 24 hrs before treatment with various compounds. Amastigotes were treated with dilutions of compounds in 96-well microtitre plates. Dilutions of compounds ranging from 0.03 μM to 44 μM were prepared and added to amastigotes. Amastigotes were exposed to compounds for 48 hrs and were incubated at 37° C. […] After the incubation period, 20 μl Alamar Blue (12.5 mg resazurin dissolved in 100 ml distilled water) (Mikes and Steverding, 2000) were added to each well and plates were incubated for another 2 hrs. […] Decrease of fluorescence (inhibition) was expressed as percentage of the fluorescence of control cultures and was plotted against the concentrations of compounds. The IC50 values were calculated from the sigmoidal inhibition curves. Amphotericin B was used as a reference drug.
# [1] = 20 mg/kg total dose, listed as Amphotericin B
Compound,LDUs (Liver) (L. donovani; 5 mg/kg total dose) [LDUs],LDUs (Spleen) (L. donovani; 5 mg/kg total dose) [LDUs],Parasite Suppression (%)--Liver (reduction in parasite burden) (L. donovani; 5 mg/kg),Parasite Suppression (%)--Spleen (reduction in parasite burden) (L. donovani; 5 mg/kg) [%],LDUs (Liver) (L. donovani; 20 mg/kg total dose),LDUs (Spleen) (L. donovani; 20 mg/kg total dose) [LDUs],Parasite Suppression (%)--Liver (reduction in parasite burden) (L. donovani; 20 mg/kg) [%],Parasite Suppression (%)--Spleen (reduction in parasite burden) (L. donovani; 20 mg/kg) [%],LDUs (Liver) (L. donovani; 50 mg/kg total dose) [LDUs],LDUs (Spleen) (L. donovani; 50 mg/kg total dose) [LDUs],Parasite Suppression (%)--Liver (reduction in parasite burden) (L. donovani; 50 mg/kg) [%],IgG Increase (%) (serum IgG; 5 mg/kg),IgG Increase (%) (serum IgG; 20 mg/kg),IgG Increase (%) (serum IgG; 50 mg/kg),"IC50 (L. donovani amastigotes; Leishmania donovani, 48 h) [µM]",SI Values Amastigotes (L. donovani amastigotes),Parasite Suppression (%)--Spleen (reduction in parasite burden) (L. donovani; 50 mg/kg) [%],also measured
"NC1=C(Br)C(=O)c2ccccc2C1=O [IMD8, 2-Amino-3-bromo-1,4-naphthoquinone]",4752.5±293,585.3±222,56.66% and 55.66%,6.51,3099.9±2197 LDUs,297.8±9.5,44.34,52.44,1869.0±420,391.5±96,81.89,20.94,28.66,23.16,2.07,6858.62±3975.5 and 6858.62,–,–
CCCC(=O)N(C(=O)CCC)C1=C(Cl)C(=O)c2ccccc2C1=O [IMDNQ15],2267.5±191,315.0±129,73.44%,49.68,2598.5±89 LDUs and 2598.5 ± 889 LDUs,363.3±210,69.57,41.97,4618.0 ± 1785,213.0±115,45.92,21.79,14.12,30.70,18.9,0.16±0.09 and 0.16,65.97,–
"O=C1C(Cl)=C(N(C(=O)c2cccc(Cl)c2)C(=O)c2cccc(Cl)c2)C(=O)c2ccccc21 [IMDNQ4, 3-Chloro-N-(3-chlorobenzoyl)-N-(3-chloro-1,4-dioxo-1,4-dihydronaphthalen-2-yl)-benzamide]",5823.8±3378,433.3±188,31.79%,30.79,4266.0±6033 LDUs,770.0±608,50.04,0,1003.8±1420,780.3±96,88.24,11.34,6.81,26.76,1.19,141.26±56.8 and 141.26,0,increase in parasite burden (spleen) (L. donovani; 20 mg/kg): 18.7%; increase in parasite burden (spleen) (L. donovani; 50 mg/kg): 19.8%
"C[C@@H]1[C@H](O)[C@@H](C)/C=C/C=C/C=C/C=C/C=C/C=C/C=C/[C@H](O[C@@H]2O[C@H](C)[C@@H](O)[C@H](N)[C@@H]2O)C[C@@H]2O[C@](O)(C[C@@H](O)C[C@@H](O)[C@H](O)CC[C@@H](O)C[C@@H](O)CC(=O)O[C@H]1C)C[C@H](O)[C@H]2C(=O)O [Am. B., Amphotericin B, reference compound]",–,–,–,–,5681.0 ± 1868 LDUs,402.3 ± 30,33.47,35.74,–,–,–,–,24.74,–,–,–,–,"LDUs (Liver) (L. donovani; [1]): 5823.8 LDUs; LDUs (Spleen) (L. donovani; [1]): 402.0±30 LDUs; Parasite Suppression (%)--Spleen (reduction in parasite burden) (L. donovani; 20 mg/kg, listed as Amphotericin B): 33.0%; IC50 (L. donovani amastigotes; L. donovani amastigotes, 48 hrs exposure, resazurin assay, means ± S.E.): 22.3 µM"
